This is an account of results in US10226530B2, “Methods for treating and/or limiting development of diabetes” (Biocrine AB, priority 2011, dated 2019).

“Also recorded” adds a separate entry of the source.

The test system of assay [1] is β cell CaV channels. Briefly: perforated whole-cell patch-clamp of Ca2+ currents in RINm5F cells. It is filed as cell-based, rat. The procedure: (§1) Islets of Langerhans were isolated from adult male and female mice and dispersed into single ([…]. RINm5F cells at about 70% confluency were trypsinized. The resultant suspension of cells was seeded into Petri dishes or 12-well plates. The cells were cultivated in RPMI 1640 medium supplemented with 10% fetal bovine serum, 2 mM L-glutamine, and 100 U/100 […] penicillin/streptomycin (Invitrogen, Carlsbad, Calif.) and maintained at 37° C. in a humidified 5% CO2 incubator. They were grown overnight and then subjected to siRNA transfection. For patch-clamp analysis, cells underwent overnight treatment with ApoCIII, the PKA inhibitor H-89 (Calbiochem, La Jolla, Calif.), the PKC inhibitor calphostin C (Calbiochem), the Src kinase inhibitor PP2 (Calbiochem) and the CaV1 channel blocker nimodipine (Calbiochem) in RPMI medium at final concentrations of 20 μg/ml, 0.5 μM, 0.1 μM, 0.1 μM and 5 μM, respectively. ApoCIII was dissolved in 0.1% triflouroacetic acid (TFA) to make a stock solution of 1 mg/ml, whereas H-89, calphostin C, PP2 and nimodipine were dissolved in dimethyl sulfoxide (DMSO) to form stock solutions of 5 mM, 1 mM, 1 mM and 10 mM, respectively. 0.002% TFA and/or 0.03% DMSO were used as vehicle controls.
Two pairs of 21-mer siRNA duplexes targeting the rat β1 integrin (β1 integrin siRNA #1, ID127971 and β1 integrin siRNA #2, ID127972) were designed and chemically synthesized by Applied Biosystems/Ambion (Austin, Tex.). Their sequences were subjected to BLAST search to ensure their specificity. Silencer® Select Negative Control siRNA (4390843), not targeting any gene product, and Silencer® Select GAPDH Positive Control siRNA (4390849), efficiently silencing GAPDH in human, mouse, and rat cells, were purchased from Applied Biosystems/Ambion (Austin, Tex.). RINm5F cells were reversely transfected with Lipofectamine™ RNAiMAX™. Briefly, negative control siRNA, β1 integrin siRNA #1 or β1 integrin siRNA #2 was mixed with Lipofectamine™ RNAiMAX™ followed by 20-min incubation at room temperature. Subsequently, cells were added to the siRNA/Lipofectamine™ RNAiMAX mixtures followed by gentle agitation and kept at 37° C. in a humidified 5% CO2 incubator. After 72 h, the transfected cells were grown to about 70% confluency and subjected to immunoblot assay or different treatments.
(§2) Mouse islet cells and RINm5F cells following different treatments were subjected to single channel and whole-cell patch-clamp measurements. Cell-attached and perforated whole-cell patch-clamp configurations were employed. Electrodes were made from borosilicate glass capillaries, fire-polished and coated with Sylgard close to their tips. Some of them were filled with a solution containing (in mM) 110 BaCl2, 10 TEA-Cl, and 5 HEPES (pH 7.4 with Ba(OH)2) for single channel measurements. Others were filled with a solution composed of (in mM) 76 Cs2SO4, 1 MgCl2, 10 KCl, 10 NaCl, and 5 HEPES (pH 7.35 with CsOH), as well as amphotericin B (0.24 mg/ml) for whole-cell current recordings. Electrode resistance ranged between 4 and 6 MΩ when they were filled with electrode solutions and immersed in bath solutions. The electrode offset potential was corrected in bath solutions prior to gigaseal formation. Single-channel recordings were performed with cells bathed in a depolarizing external recording solution, containing (in mM) 125 KCl, 30 KOH, 10 EGTA, 2 CaCl2, 1 MgCl2, and 5 HEPES-KOH (pH 7.15). This solution was used to bring the intracellular potential to 0 mV. For perforated whole-cell current measurements, the cells were bathed in a solution containing (in mM) 138 NaCl, 5.6 KCl, 1.2 MgCl2, 10 CaCl2, 5 HEPES (pH 7.4). Single channel and whole-cell currents were recorded with an Axopatch 200B amplifier (Molecular Devices, Foster City, Calif.) and an EPC-9 patch clamp amplifier (HEKA Elektronik, Lambrecht/Pfalz, Germany), respectively, at room temperature (about 22° C.). […]
(In patch-clamp work, channel activity is measured electrically.)

In assay [2] the test system is CaV1 channels. Put plainly: cell-attached single channel patch-clamp of unitary CaV1 channel currents in RINm5F cells. It is filed as cell-based, rat. The note with it: ApoCIII 20 μg/ml overnight versus vehicle solution. The procedure: as §1
as §2, with “For perforated whole-cell current measurements, the cells were bathed in a solution containing (in mM) 138 NaCl, 5.6 KCl, 1.2 MgCl2, 10 CaCl2, 5 HEPES (pH 7.4).” left out

Assay [3] deals with CaV1 channels. Put plainly: cell-attached single channel patch-clamp of unitary CaV1 channel currents in mouse islet β cells. Type of assay: cell-based. How it is done: as §1
as §2, with “For perforated whole-cell current measurements, the cells were bathed in a solution containing (in mM) 138 NaCl, 5.6 KCl, 1.2 MgCl2, 10 CaCl2, 5 HEPES (pH 7.4).” left out

A further assay relates to CaV1.2. Put plainly: immunoblot of CaV1.2 subunit in RINm5F cell homogenates. It is filed as cell-based, rat. The note with it: overnight ApoCIII; P>0.05. How it is done:
as §1, with “ApoCIII was dissolved in 0.1% triflouroacetic acid (TFA) to make a stock solution of 1 mg/ml, whereas H-89, calphostin C, PP2 and nimodipine were dissolved in dimethyl sulfoxide (DMSO) to form stock solutions of 5 mM, 1 mM, 1 mM and 10 mM, respectively. 0.002% TFA and/or 0.03% DMSO were used as vehicle controls.” left out
(§3) RINm5F cells following different treatments were lysed in a lysis buffer (pH 7.5) consisting of 50 mM HEPES, 150 mM NaCl, 1 mM EGTA, 1 mM EDTA, 10% glycerol, 1% triton X-100, 1 mM PMSF and a protease inhibitor cocktail (Roche Diagnostics, Mannheim, Germany). […] The protein concentration of the resulting samples was determined with Bio-Rad protein assay reagent (Bio-Rad, Hercules, Calif.). […]
On the technique in general: A western blot detects proteins with antibodies after separation by electrophoresis.

The subject of assay [4] is β cell CaV channels. The conditions noted are these: mouse islet β cell; Juntti-Berggren et al., 2004; cited from earlier work.
The subject of another assay is CaV1.3. Put plainly: immunoblot of CaV1.3 subunit in RINm5F cell homogenates. It is filed as cell-based, rat. The conditions noted are these: overnight ApoCIII; P>0.05. The procedure:
as §1, with “ApoCIII was dissolved in 0.1% triflouroacetic acid (TFA) to make a stock solution of 1 mg/ml, whereas H-89, calphostin C, PP2 and nimodipine were dissolved in dimethyl sulfoxide (DMSO) to form stock solutions of 5 mM, 1 mM, 1 mM and 10 mM, respectively. 0.002% TFA and/or 0.03% DMSO were used as vehicle controls.” left out
as §3

Where [5] appears, read: H-89 0.5 μM, ApoCIII 20 μg/ml, overnight.
The mark [6] stands for this setting: ApoCIII 20 μg/ml overnight versus control vehicle.

As to `O=S(=O)(NCCNC/C=C/c1ccc(Br)cc1)c1cccc2cnccc12` [H-89], in the assay on β cell CaV channels [1] (setting [5]), the “Ca2+ current density, cotreatment of ApoCIII and H-89 versus cells treated with ApoCIII” value is on record as “did not significantly differ”; the “Ca2+ current density, cotreatment of ApoCIII and H-89 versus control cells” value is “did not significantly differ”. Further, the “Ca2+ current densities under basal conditions, H-89 versus control” value in the assay with β cell CaV channels [1] (H-89 0.5 μM, absence of ApoCIII) is reported as “did not significantly influence”.

As to `CC(C)(C)n1nc(-c2ccc(Cl)cc2)c2c(N)ncnc21` [PP2], in the assay on β cell CaV channels [1] (PP2 0.1 μM), the “difference in Ca2+ current density to vehicle: ApoCIII/PP2-cotreated cells compared with that of ApoCIII-treated cells” value was “less prominent”. Also, the “Ca2+ current densities, cells incubated with PP2 versus vehicle-treated cells” value in the assay with β cell CaV channels [1] (PP2 0.1 μM, absence of ApoCIII) is “similar”. Moreover, the “Ca2+ currents, cotreatment of ApoCIII and PP2 versus vehicle control cells” value with β cell CaV channels [1] (voltage range 20-40 mV, PP2 0.1 μM) is on record as “significantly larger”.

In the case of apolipoprotein CIII [ApoCIII], in the assay with CaV1 channels [2], the “channel number of CaV1 channels” value is given as “significantly increased”, the “mean closed time of CaV1 channels” value is “shortened”, the “mean open time of CaV1 channels” value is “prolonged” and the “open probability of CaV1 channels” value is “elevated”. The “density of whole-cell Ca2+ currents, ApoCIII group versus control group” value in the assay with β cell CaV channels [1] (no voltage range printed, H-89/PP2 experiment) is reported as “Significantly higher”. The “Ca2+ current density, NC siRNA/apoCIII versus NC siRNA/Control” value in the assay with β cell CaV channels [1] (voltage range 10-40 mV, negative control siRNA-transfected cells) is “significant increase”. Moreover, in the assay with β cell CaV channels [1] (voltage range 10 to 50 mV, ApoCIII 20 μg/ml overnight), the “whole-cell Ca2+ current density, ApoCIII-treated cells versus vehicle control cells” value was “significantly higher; also recorded: increased significantly; also recorded: significantly elevated; also recorded: significantly increased”. In the assay on β cell CaV channels [1] (voltage range from 10 to 30 mV, ApoCIII 20 μg/ml overnight), the “whole-cell Ca2+ current density, ApoCIII group versus control group” value was “significantly higher”. The “mean closed time of unitary CaV1 channels” value in the assay with CaV1 channels [3] (ApoCIII 20 μg/ml overnight versus control patches) is “significantly shorter”. In the assay with CaV1 channels [3] (setting [6]), the “mean open time of unitary CaV1 channels” value is reported as “significantly greater” and the “open probability of unitary CaV1 channels” value is listed as “significantly greater”. Further, the “average number of unitary CaV1 channels” value with CaV1 channels [3] (ApoCIII 20 μg/ml overnight versus control vehicle, plasma membrane patches) is “significantly greater”. For the same compound, the “relative abundance of CaV1.2 subunits, ApoCIII incubation versus vehicle incubation” value in the assay with CaV1.2 is listed as “no significant difference”. Further, the “whole-cell Ca2+ currents after ApoCIII incubation” value in the assay with β cell CaV channels [4] is given as “significantly enhances”. Moreover, the “relative abundance of CaV1.3 subunits, ApoCIII incubation versus vehicle incubation” value with CaV1.3 is “no significant difference”.

As to calphostin C [CalpC], the “Ca2+ current density, ApoCIII/CalpC-cotreated cells versus ApoCIII-treated cells” value in the assay on β cell CaV channels [1] (calphostin C 0.1 μM) was “no difference”. Moreover, in the assay with β cell CaV channels [1] (calphostin C 0.1 μM, absence of ApoCIII), the “Ca2+ current density, CalpC-treated cells versus control vehicle” value is “similar”. Further, the “mean Ca2+ current density, ApoCIII/CalpC versus vehicle control cells” value in the assay on β cell CaV channels [1] (voltage range from 20 to 50 mV, calphostin C 0.1 μM) is given as “increased significantly”.
